{"source": "patent US10806732B2", "about": "“Stable anti-neoplastic pharmaceutical composition comprising temozolomide and method of preparing the composition” (DOUBLE BOND PHARMACEUTICAL AB, priority 2016, dated 2020)", "key": {"[1]": {"details": "oral administration; cited from earlier work"}, "[2]": {"assay": "Stability of TMZ in dextran phosphate gel of pH 7.2-7.4 (prior art BY 11838 C1)", "assay_type": "physicochemical", "source_text": "BY 11838 C1 discloses a combined treatment method for malignant brain tumors. The method comprises surgical excision of the tumor tissue followed by application of TMZ comprised by high substituted dextran phosphate gel of pH 7.2-7.4. The dry weight ratio of TMZ/high substituted dextran phosphate in the preparation is 0.03:1.0. The freeze-dried gel is reconstituted by the addition of sterile water and pH adjusted prior to use, then applied to the wound surface. […] In addition, the structure of highly substituted dextran phosphate contains a large number of di- and tri-substituted phosphoric acid groups, which provide additional cross-linking of macromolecules, which reduces the ability to absorb water and limits the amount of TMZ to 30 mg/g in the gel of highly substituted dextran phosphate. The low concentration of TMZ in the composition implies that the volume must be increased to administrate higher dose of the substance, i.e., the prodrug TMZ, and thus also the amount highly substituted dextran phosphates administered is increased. A 2- or 3-fold increase in the amount of highly substituted dextran phosphates can lead to undesirable reactions associated with the duration of the biodegradation process. […]"}}}
{"smiles": "Cn1nnc2c(C(N)=O)ncn2c1=O", "note": "[TMZ, 4-methyl-5-oxo-2,3,4,6,8-pentazabicyclo[4.3.0]nona-2,7,9-triene-9-carboxamide]", "values": [{"measurement": "half-life", "setting": "[1]", "value": 1.8, "unit": "h"}, {"measurement": "time to peak plasma concentration", "setting": "[1]", "value": 0.7, "unit": "h"}, {"measurement": "stability of TMZ (hydrolysis to AIC)", "setting": "[2]", "value": "decomposes"}]}
